Read-outs that look alike come from different tables or passages of the source.
Tests used:
[1] = system: Alopecurus myosuroides; experiment: Herbicidal action (Example 25); format: in vivo; details: Alopecurus myosuroides, read-out: percentage damage; for pest or weed control at 1000 g/ha: 1.0 kg/ha; for pest or weed control at 2000 g/ha: 2.0 kg/ha; for pest or weed control at 4000 g/ha: 4.0 kg/ha; for pest or weed control at 8000 g/ha: 8.0 kg/ha
Experimental: (§1) Paraffined paper cups having a volume of 170 cm^3 were filled with a sandy loam, and the seeds of the test plants sown therein, separated by species. (The species are also listed below.)
(§2) In the first group, treatment was effected immediately after sowing and before germination of the seeds (preemergence treatment=soil treatment). Shallow sown seeds not completely covered with soil came into contact with the active ingredients. In the second group, the plants were treated postemergence (=leaf treatment) at a growth height of from 2 to 8 cm, depending on the rate of growth and shape of the species concerned. The compounds were suspended or emulsified in water and applied with the aid of fine nozzles. The soil and plants were thoroughly sprinkler irrigated for the duration of the experiment. The cups were placed in the greenhouse and kept in the temperature range 12°-25° C. or 18°-35° C., depending on the temperature requirements of the various species. After 2 to 6 weeks the action was assessed visually on a 0 to 100 scale, 0 denoting no damage and 100 denoting plants not germinated or completely destroyed.

[2] = system: Echinochloa crus galli; experiment: Herbicidal action (Example 25); format: in vivo
Experimental: as §1, §2

[3] = system: Galium aparine; experiment: Herbicidal action (Example 25); format: in vivo; details: post-emergence, postemergence, 4.0 kg/ha, read-out: percentage damage
Experimental: as §1, §2

[4] = system: Sinapis alba; experiment: Herbicidal action (Example 25); format: in vivo; details: read-out: percentage damage; for pest or weed control at 1000 g/ha: 1.0 kg/ha; for pest or weed control at 2000 g/ha: 2.0 kg/ha
Experimental: as §1, §2

[5] = system: Arachis hypogaea; experiment: Growth-regulating action, postemergence, greenhouse (Example 35, Table 1); format: in vivo; details: for growth height relative: control 100
Source text: (§3) The vessels used for the experiments were plastic pots having a volume of 1,130 cm^3 (Table A) or paraffined paper cups having a volume of 170 cm^3 (Table B). The pots and cups were filled with a sandy loam. The seeds of the test plants-separated by species-were sown shallow. Preemergence treatment (soil treatment) was effected immediately after sowing and before germination of the seeds. Seeds lying on the surface came into contact with the active ingredients. Postemergence treatment (leaf treatment) took place at an average growth height of the plants (depending on the rate of growth) of from 6 to 10 cm. The substances were suspended, emulsified or dissolved in water as diluent and applied by means of fine nozzles. The vessels were kept in the greenhouse in a temperature range of 12° C. to 25° C., and were regularly sprinkler irrigated for the duration of the experiment. The observation period was 6 to 8 weeks.
(§4) Further experiments were carried out in the greenhouse under the condition described in Example 11. […] As the plants which were examined liked the warmth (Eupghorbia geniculate, Arachis hypogaea, Cynodon dactylon), they were kept at from 20°-30° C. Cynodon dactylon from seed was cut once and the young growth treated postemergence.

[6] = system: Cynodon dactylon; experiment: as above; format: in vivo; details: for growth height relative: control 100
Source text: as §3, §4

[7] = system: Euphorbia geniculata; experiment: Growth-regulating action, preemergence, greenhouse (Example 35, Table 2); format: in vivo; details: for growth height relative: control 100
Source text: as §3, §4

[8] = system: Datura stramonium; experiment: Herbicidal action (Example 25); format: in vivo; details: postemergence
Experimental: as §1, §2

[9] = system: tomatoes; experiment: Action on tomatoes (Example 22); format: in vivo; details: leaf; for Plant height: 14 days; for Plant height relative: control 100
Experimental: Tomatoes were grown in the greenhouse in glass dishes 11.5 cm in diameter containing a peat substrate which was provided with an adequate supply of nutrients. The active ingredients were sprayed onto the leaves in conventional manner at a plant height of 9 to 12 cm.

[10] = system: Poa praetensis; experiment: Growth height of individual grasses (Example 15); format: in vivo; set-up: key to plant color: ^+: plants a darker green; details: for Growth height: 3 weeks after treatment; for growth height relative: control 100
Experimental: (§5) Under the same conditions as in Example 13 the two grasses Festuca rubra and Poa praetensis (both components of the lawn mixture used in Example 13) were grown in a neutral sandy loam. The growth height was measured 3 weeks after treatment with the active ingredients.

[11] = system: Festuca rubra; experiment: Growth height of individual grasses (Example 15); format: in vivo; details: for Growth height: 3 weeks after treatment; for growth height relative: control 100
Experimental: as §5

[12] = system: sugar beet; experiment: Yield and sugar content of sugar beet (Example 20); format: in vivo, sugar beet (KAWpoly variety); details: for Sugar content of lower stems rel. / Sugar content rel. / Yield rel.: control 100
Experimental: Sugar beets of the KAWpoly variety were grown in a neutral sandy loam in large pots. Fertilization with 1.5 g N as ammonium nitrate and 1 g P2 O5 as secondary potassium phosphate took place at the time of sowing. At a plant height of 16 to 18 cm the leaves were treated twice, once with 0.5 kg/ha and once with 1 kg/ha; in each case, 4 pots formed a variation of the experiment.

O=C(Nc1ccc(Cl)c(Cl)c1)C1CC1
pest or weed control at 1000 g/ha ([1]; post-emergence, postemergence): 80%
pest or weed control at 2000 g/ha ([1]; post-emergence, postemergence): 30%
pest or weed control at 1000 g/ha ([1]; pre-emergence, preemergence): 0%
pest or weed control at 2000 g/ha ([1]; pre-emergence, preemergence): 0%
percentage damage ([2]; postemergence, 1.0 kg/ha): 100 percentage damage
percentage damage ([2]; postemergence, 2.0 kg/ha): 100 percentage damage
percentage damage ([2]; preemergence, 1.0 kg/ha): 80 percentage damage
percentage damage ([2]; preemergence, 2.0 kg/ha): 90 percentage damage
pest or weed control at 4000 g/ha [3]: 0%
pest or weed control at 1000 g/ha ([4]; post-emergence, postemergence): 100%
pest or weed control at 2000 g/ha ([4]; post-emergence, postemergence): 100%
pest or weed control at 1000 g/ha ([4]; pre-emergence, preemergence): 60%
pest or weed control at 2000 g/ha ([4]; pre-emergence, preemergence): 60%

C[N+](C)(C)CCCl [[ClCH2CH2N(CH3⊕)3]Cl⊖, reference compound]
Growth height ([5]; 0.5 kg/ha): 16 cm
growth height relative ([5]; 0.5 kg/ha): 100
Growth height ([5]; 2.0 kg/ha): 14 cm
growth height relative ([5]; 2.0 kg/ha): 87
Growth height ([6]; 0.5 kg/ha): 9 cm
growth height relative ([6]; 0.5 kg/ha): 82
Growth height ([6]; 2.0 kg/ha): 9 cm
growth height relative ([6]; 2.0 kg/ha): 82
Growth height ([7]; 0.25 kg/ha): 10 cm
growth height relative ([7]; 0.25 kg/ha): 91
Growth height ([7]; 0.5 kg/ha): 10 cm
growth height relative ([7]; 0.5 kg/ha): 91
Growth height ([7]; 1.0 kg/ha): 9 cm
growth height relative ([7]; 1.0 kg/ha): 82

C=CCN(CC=C)C(=O)CCl [drawing 425]
pest or weed control at 2000 g/ha ([1]; post-emergence, postemergence): 28%
pest or weed control at 4000 g/ha ([1]; post-emergence, postemergence): 38%
pest or weed control at 8000 g/ha ([1]; post-emergence, postemergence): 35%
pest or weed control at 2000 g/ha ([1]; pre-emergence, preemergence): 68%
pest or weed control at 4000 g/ha ([1]; pre-emergence, preemergence): 85%
pest or weed control at 8000 g/ha ([1]; pre-emergence, preemergence): 98%
percentage damage ([8]; 2.0 kg/ha): 10 percentage damage
percentage damage ([8]; 4.0 kg/ha): 20 percentage damage
percentage damage ([8]; 8.0 kg/ha): 60 percentage damage

Clc1ccc(N2N=NC3C4CC(C5N=NC45)C32)cc1 (stereo not drawn) [drawing 402]
Plant height ([9]; 1.5 kg/ha): 24.3 cm
Plant height relative ([9]; 1.5 kg/ha): 89.3
Plant height ([9]; 3.0 kg/ha): 20.3 cm
Plant height relative ([9]; 3.0 kg/ha): 74.6
Plant height ([9]; 6.0 kg/ha): 14.0 cm
Plant height relative ([9]; 6.0 kg/ha): 51.5

Clc1ccc(N2N=NC3C4CC(C5N=NC45)C32)cc1 (stereo not drawn) [drawing 385]
Growth height ([10]; 0.5 kg/ha): 20.0 cm
growth height relative ([10]; 0.5 kg/ha): 88.9
plant color ([10]; 1.0 kg/ha): ^+
Growth height ([10]; 1.0 kg/ha): 20.0 cm
growth height relative ([10]; 1.0 kg/ha): 88.9
plant color ([10]; 2.0 kg/ha): ^+
Growth height ([10]; 2.0 kg/ha): 15.5 cm
growth height relative ([10]; 2.0 kg/ha): 68.9
Growth height ([11]; 0.5 kg/ha): 27.0 cm
growth height relative ([11]; 0.5 kg/ha): 98.2
Growth height ([11]; 1.0 kg/ha): 25.5 cm
growth height relative ([11]; 1.0 kg/ha): 92.7
Growth height ([11]; 2.0 kg/ha): 23.5 cm
growth height relative ([11]; 2.0 kg/ha): 85.5

Brc1ccc(N2N=NC3C4CC(C5N=NC45)C32)cc1 (stereo not drawn) [drawing 386]
Growth height ([10]; 0.5 kg/ha): 19.0 cm
growth height relative ([10]; 0.5 kg/ha): 84.4
plant color ([10]; 1.0 kg/ha): ^+
Growth height ([10]; 1.0 kg/ha): 17.5 cm
growth height relative ([10]; 1.0 kg/ha): 77.8
plant color ([10]; 2.0 kg/ha): ^+
Growth height ([10]; 2.0 kg/ha): 14.0 cm
growth height relative ([10]; 2.0 kg/ha): 62.2
Growth height ([11]; 0.5 kg/ha): 29.5 cm
growth height relative ([11]; 0.5 kg/ha): 107.3
Growth height ([11]; 1.0 kg/ha): 27.5 cm
growth height relative ([11]; 1.0 kg/ha): 100.0
Growth height ([11]; 2.0 kg/ha): 25.5 cm
growth height relative ([11]; 2.0 kg/ha): 92.7

COc1ccc(NC(=O)N(C)C)cc1Cl
pest or weed control at 1000 g/ha ([1]; post-emergence, postemergence): 70%
pest or weed control at 2000 g/ha ([1]; post-emergence, postemergence): 70%
pest or weed control at 1000 g/ha ([1]; pre-emergence, preemergence): 0%
pest or weed control at 2000 g/ha ([1]; pre-emergence, preemergence): 0%
percentage damage ([2]; postemergence, 1.0 kg/ha): 100 percentage damage
percentage damage ([2]; postemergence, 2.0 kg/ha): 100 percentage damage
percentage damage ([2]; preemergence, 1.0 kg/ha): 80 percentage damage
percentage damage ([2]; preemergence, 2.0 kg/ha): 90 percentage damage
pest or weed control at 4000 g/ha [3]: 50%
pest or weed control at 1000 g/ha ([4]; post-emergence, postemergence): 100%
pest or weed control at 2000 g/ha ([4]; post-emergence, postemergence): 100%
pest or weed control at 1000 g/ha ([4]; pre-emergence, preemergence): 90%
pest or weed control at 2000 g/ha ([4]; pre-emergence, preemergence): 90%

Brc1ccc(N2N=NC3C4CC(C5N=NC45)C32)cc1 (stereo not drawn) [drawing 403]
Plant height ([9]; 1.5 kg/ha): 25.0 cm
Plant height relative ([9]; 1.5 kg/ha): 91.9
Plant height ([9]; 3.0 kg/ha): 22.7 cm
Plant height relative ([9]; 3.0 kg/ha): 83.5
Plant height ([9]; 6.0 kg/ha): 15.3 cm
Plant height relative ([9]; 6.0 kg/ha): 56.2

Brc1ccc(N2N=NC3C4CC(C5N=NC45)C32)cc1 (stereo not drawn) [drawing 400]
Sugar content ([12]; 0.5 kg/ha): 51.0 % in dry substance
Sugar content of lower stems ([12]; 0.5 kg/ha): 22.9 % in dry substance
Yield ([12]; 0.5 kg/ha): 13.04 g dry substance/vessel
Sugar content of lower stems rel. ([12]; 0.5 kg/ha): 100.9
Sugar content rel. ([12]; 0.5 kg/ha): 101.4
Yield rel. ([12]; 0.5 kg/ha): 107.4
Sugar content ([12]; 1.0 kg/ha): 52.2 % in dry substance
Sugar content of lower stems ([12]; 1.0 kg/ha): 25.8 % in dry substance
Yield ([12]; 1.0 kg/ha): 14.39 g dry substance/vessel
Sugar content of lower stems rel. ([12]; 1.0 kg/ha): 113.6
Sugar content rel. ([12]; 1.0 kg/ha): 103.8
Yield rel. ([12]; 1.0 kg/ha): 118.5

CCc1cccc(CC)c1N(COC)C(=O)CCl
pest or weed control at 1000 g/ha ([1]; post-emergence, postemergence): 40%
pest or weed control at 2000 g/ha ([1]; post-emergence, postemergence): 50%
pest or weed control at 1000 g/ha ([1]; pre-emergence, preemergence): 20%
pest or weed control at 2000 g/ha ([1]; pre-emergence, preemergence): 78%
percentage damage ([2]; postemergence, 1.0 kg/ha): 98 percentage damage
percentage damage ([2]; postemergence, 2.0 kg/ha): 98 percentage damage
percentage damage ([2]; preemergence, 1.0 kg/ha): 100 percentage damage
percentage damage ([2]; preemergence, 2.0 kg/ha): 100 percentage damage
pest or weed control at 4000 g/ha [3]: 0%
pest or weed control at 1000 g/ha ([4]; post-emergence, postemergence): 0%
pest or weed control at 2000 g/ha ([4]; post-emergence, postemergence): 0%
pest or weed control at 1000 g/ha ([4]; pre-emergence, preemergence): 0%
pest or weed control at 2000 g/ha ([4]; pre-emergence, preemergence): 0%

— US4257941A, “Polycyclic nitrogen-containing compounds” (BASF Aktiengesellschaft, priority 1976, dated 1981)
